The record followed here is US7148212B2, “Process for production of steroid crystals, steroid crystals obtained thereby and pharmaceutical preparations containing them” (Schering AG, priority 2002, dated 2006).

This data set can be described thus: Particle size distribution (Sympatec HELOS, dry dispersion). The data set is classed as physicochemical. The procedure: Particle Size Distribution:
• Sympatec HELOS (H0445), dry dispersion system (RODOS), pressure 2 bar Content Uniformity Test: • Content Determination according to USP/Ph. Eur. for individual capsules after elution through HPLC with external calibration • Column: LiChrosphere 5μ RP-18 encapped, 150×3 mm • Eluent: acetonitrile/water=45/55 • Flow: 1 ml/min • Detection UV (272 nm) Active Ingredient Release: • Active ingredient release measured in 1000 mL water with 0.3% sodium dodecyl sulfate, 100 rpm • Content Determination y HPLC with external calibration • Column: LiChrosphere 5μ RP-18 encapped, 150×3 mm • Eluent: acetonitrile/water=45/55 • Flow: 1 ml/min • Detection UV (272 nm)

Where [1] appears, read: Example 1 microcrystals, ethyl acetate, three cycles 55/20° C., air dried.
The mark [2] stands for this setting: after drying on filter (ethyl acetate suspension).
[3] abbreviates: after spray-drying (ethanol/water suspension).
The mark [4] stands for this setting: suspension in ethanol/water (90/10) with 10% by weight microcrystalline J956, before drying.
[5] abbreviates: suspension in ethyl acetate with 14% by weight microcrystalline J956, before drying.

Marks after values point to notes of the source that are not given here.

Take `CCNC(=O)ON=Cc1ccc(C2CC3(C)C(CCC3(COC)OC)C3CCC4=CC(=O)CCC4=C23)cc1` (stereo not drawn) [J956, 11β-{4-[(ethylaminocarbonyl)oximinomethyl]phenyl}-17β-methoxy-17α-methoxymethyl-estra-4,9-dien-3-one]: the “Particle size X10” value under setting [1] is on record as 2.62 μm; the “Particle size X10” value under setting [2] is reported as 2.7 μm; the “Particle size X10” value under setting [3] was 2.25 μm; the “Particle size X10” value under setting [4] is listed as 2.11 μm; the “Particle size X10” value under setting [5] is 2.62*** μm. Also, the “Particle size X50” value under setting [1] was 10.4 μm; the “Particle size X50” value under setting [2] is 10.61 μm; the “Particle size X50” value under setting [3] was determined as 8.03 μm; the “Particle size X50” value under setting [4] came out at 8.6 μm; the “Particle size X50” value under setting [5] came out at 10.4 μm. For the same compound, the “Particle size X90” value reads like this: under setting [2], 24 μm; under setting [3], 17 μm; under setting [4], 19 μm; under setting [5], 24 μm. In addition, the “Particle size X100” value was 43 μm under setting [3] and 51 μm under setting [4].
